Drawing on US20080058349A1, “New Compounds 318” (Astrazeneca AB, priority 2006, published 2008), this text covers IC50 for 28 compounds.

The target in this assay is T1, human β-Secretase (Homo sapiens, UniProt P56817).
T1 construct: The soluble part of the human β-Secretase (AA 1-AA 460) was cloned; made in house
Briefly: TR-FRET assay.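 Also: sBACE-Fc from HEK 293 cells, compound preincubated 10 min, then 15 min substrate reaction at RT in darkness, 5% DMSO, DMSO control as 100% and enzyme-free wells as 0%.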 The class given is biochemical. The conditions noted are these: soluble human β-Secretase (sBACE-Fc), pH 4.5. (In general: In TR-FRET formats the signal depends on donor and acceptor labels being close together.)

[1] abbreviates: substrate (Europium)[…](Qsy7) 100 nM.

Where a name gives a salt, the structure may show the parent alone.

T1 sequence (P56817 22-460): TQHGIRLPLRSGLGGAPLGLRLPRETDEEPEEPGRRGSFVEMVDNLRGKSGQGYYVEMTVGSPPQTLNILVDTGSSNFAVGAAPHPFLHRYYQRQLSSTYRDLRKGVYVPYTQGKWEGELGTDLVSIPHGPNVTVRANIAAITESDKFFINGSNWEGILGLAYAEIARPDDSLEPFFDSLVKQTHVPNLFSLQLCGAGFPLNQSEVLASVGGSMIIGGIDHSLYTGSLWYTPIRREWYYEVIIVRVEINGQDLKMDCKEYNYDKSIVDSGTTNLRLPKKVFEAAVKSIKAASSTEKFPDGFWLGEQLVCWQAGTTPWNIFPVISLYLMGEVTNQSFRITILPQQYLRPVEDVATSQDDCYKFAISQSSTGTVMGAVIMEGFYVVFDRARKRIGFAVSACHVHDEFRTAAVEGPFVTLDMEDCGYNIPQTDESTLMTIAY

With “4-[5-Amino-7-(3′,5′-dichlorobiphenyl-3-yl)-2,7-dihydro-3H-imidazo[1,5-a]imidazol-7-yl]phenyl methanesulfonate 0.25 acetate [Example 61]”, under “substrate (Europium)CEVNLDAEFK(Qsy7) 100 nM”, the IC50 – broadly, the midpoint of a concentration-inhibition curve – was 146 nM.

As for `COc1ccc(C2(c3cccc(-c4cc(Cl)cc(Cl)c4)c3)N=C(N)N3CC(O)CN=C32)cc1` (mixture of isomers) [Example 125, 6-Amino-8-(3′,5′-dichlorobiphenyl-3-yl)-8-(4-methoxyphenyl)-2,3,4,8-tetrahydroimidazo[1,5-a]pyrimidin-3-ol], the IC50 under setting [1] worked out at 22 nM. `COc1ccc(C2(c3cccc(-c4cc(Cl)cc(Cl)c4)c3)N=C(N)N3CC(OC)CN=C32)cc1` (mixture of isomers) [Example 126, 8-(3′,5′-Dichlorobiphenyl-3-yl)-3-methoxy-8-(4-methoxyphenyl)-2,3,4,8-tetrahydroimidazo[1,5-a]pyrimidin-6-amine] returned an IC50 under setting [1] of 41 nM. As to `COc1ccc(C2(c3cccc(-c4cc(Cl)cc(Cl)c4)c3)N=C(N)N3CC(C#N)CN=C32)cc1` (mixture of isomers) [Example 127, 6-Amino-8-(3′,5′-dichlorobiphenyl-3-yl)-8-(4-methoxyphenyl)-2,3,4,8-tetrahydroimidazo[1,5-a]pyrimidine-3-carbonitrile], the IC50 under setting [1] was determined as 27 nM. For the compound `COc1ccc(C2(c3cccc(-c4cc(Cl)cc(Cl)c4)c3)N=C(N)N3CC(C(=O)O)CN=C32)cc1` (mixture of isomers) [Example 128, 6-Amino-8-(3′,5′-dichlorobiphenyl-3-yl)-8-(4-methoxyphenyl)-2,3,4,8-tetrahydroimidazo[1,5-a]pyrimidine-3-carboxylic acid], under setting [1], the IC50 was 34 nM. The compound `COc1ccc(C2(c3cccc(-c4cc(Cl)cc(Cl)c4)c3)N=C(N)N3CC(NC(C)=O)CN=C32)cc1` (mixture of isomers) [Example 129, N-[6-amino-8-(3′,5′-dichlorobiphenyl-3-yl)-8-(4-methoxyphenyl)-2,3,4,8-tetrahydroimidazo[1,5-a]pyrimidin-3-yl]acetamide] showed an IC50 under setting [1] of 21 nM.

For the compound `COc1ccc(C2(c3cccc(-c4cc(Cl)cc(Cl)c4)c3)N=C(N)N3CC(NS(C)(=O)=O)CN=C32)cc1` (mixture of isomers) [Example 130, N-[6-Amino-8-(3′,5′-dichlorobiphenyl-3-yl)-8-(4-methoxyphenyl)-2,3,4,8-tetrahydroimidazo[1,5-a]pyrimidin-3-yl]methanesulfonamide], the IC50 under setting [1] was determined as 17 nM. The same measure, in the same setting: the same measure for `COc1ccc(C2(c3cccc(-c4cc(Cl)cc(Cl)c4)c3)N=C(N)N3C2=NCC[C@H]3C(=O)O)cc1` (mixture of isomers) [Example 131, (4S)-6-amino-8-(3′,5′-dichlorobiphenyl-3-yl)-8-(4-methoxyphenyl)-2,3,4,8-tetrahydroimidazo[1,5-a]pyrimidine-4-carboxylic acid]: 159 nM; for `COc1cccc(-c2cccc(C3(c4ccccc4)N=C(N)N4CCCN=C43)c2)c1` (stereo not shown) [Example 30, 8-(3′-Methoxybiphenyl-3-yl)-8-phenyl-2,3,4,8-tetrahydroimidazo[1,5-a]pyrimidin-6-amine hydrochloride]: 510 nM; for `NC1=NC(c2ccccc2)(c2cccc(-c3cccc(Cl)c3)c2)C2=NCCCN12` (stereo not shown) [Example 31, 8-(3′-Chlorobiphenyl-3-yl)-8-phenyl-2,3,4,8-tetrahydroimidazo[1,5-a]pyrimidin-6-amine hydrochloride]: 255 nM.

Compound `NC1=NC(c2ccc(OS(=O)(=O)C(F)(F)F)cc2)(c2cccc(-c3cccc(Cl)c3)c2)C2=NCCN12` (stereo not shown) [Example 96, 4-[5-Amino-7-(3′-chlorobiphenyl-3-yl)-2,7-dihydro-3H-imidazo[1,5-a]imidazol-7-yl]phenyl trifluoromethanesulfonate 0.75 acetate] showed an IC50 under setting [1] of 227 nM. With `NC1=NC(c2ccc(OS(=O)(=O)C(F)(F)F)cc2)(c2cccc(-c3cccc(Cl)c3)c2)C2=NCCCN12` (stereo not shown) [Example 99, 4-[6-Amino-8-(3′-chlorobiphenyl-3-yl)-2,3,4,8-tetrahydroimidazo[1,5-a]pyrimidin-8-yl]phenyl trifluoromethanesulfonate acetate], inhibition under setting [1] was half-maximal at 113 nM (IC50). In turn, `COc1ccc(F)c(-c2cccc(C3(c4ccccc4)N=C(N)N4CCCN=C43)c2)c1` (stereo not shown) [Example 100, 8-(2′-Fluoro-5′-methoxybiphenyl-3-yl)-8-phenyl-2,3,4,8-tetrahydroimidazo[1,5-a]pyrimidin-6-amine hydrochloride] came in with an IC50 under setting [1] of 305 nM.

With `NC1=NC(c2ccccc2)(c2cccc(-c3cc(Cl)ccc3F)c2)C2=NCCCN12` (stereo not shown) [Example 101, 8-(5′-Chloro-2′-fluorobiphenyl-3-yl)-8-phenyl-2,3,4,8-tetrahydroimidazo[1,5-a]pyrimidin-6-amine hydrochloride], the IC50 under setting [1] worked out at 378 nM.

As for `NC1=NC(c2ccccc2)(c2cccc(-c3cc(Cl)cc(Cl)c3)c2)C2=NCCCN12` (stereo not shown) [Example 102, 8-(3′,5′-Dichlorobiphenyl-3-yl)-8-phenyl-2,3,4,8-tetrahydroimidazo[1,5-a]pyrimidin-6-amine hydrochloride], it took 149 nM to reach half-maximal inhibition under setting [1] (IC50). Still for that read-out and setting: the same measure for `COc1cc(OS(C)(=O)=O)cc(-c2cccc(C3(c4ccccc4)N=C(N)N4CCCN=C43)c2)c1` (stereo not shown) [Example 103, 3′-(6-Amino-8-phenyl-2,3,4,8-tetrahydroimidazo[1,5-a]pyrimidin-8-yl)-5-methoxybiphenyl-3-yl methanesulfonate hydrochloride]: 727 nM.

Compound `COc1ccc(C2(c3cccc(-c4cc(Cl)cc(Cl)c4)c3)N=C(N)N3CC(S(C)(=O)=O)CN=C32)cc1` (stereo not shown) [Example 124, 8-(3′,5′-Dichlorobiphenyl-3-yl)-8-(4-methoxyphenyl)-3-(methylsulfonyl)-2,3,4,8-tetrahydroimidazo[1,5-a]pyrimidin-6-amine 2.0 acetate] yielded an IC50 under setting [1] of 39 nM.

In the case of `COc1ccc(C2(c3cccc(-c4cc(Cl)cc(Cl)c4)c3)N=C(N)N3CC(F)(F)CN=C32)cc1` (stereo not shown) [Example 132, 8-(3′,5′-Dichlorobiphenyl-3-yl)-3,3-difluoro-8-(4-methoxyphenyl)-2,3,4,8-tetrahydroimidazo[1,5-a]pyrimidin-6-amine 0.75 acetate], the IC50 under setting [1] was found to be 32 nM. As for `COc1ccc(C2(c3cccc(-c4cc(Cl)cc(Cl)c4)c3)N=C(N)N3CC(F)CN=C32)cc1` (stereo not shown) [Example 136, 8-(3′,5′-Dichlorobiphenyl-3-yl)-3-fluoro-8-(4-methoxyphenyl)-2,3,4,8-tetrahydroimidazo[1,5-a]pyrimidin-6-amine 1.5 acetate], the IC50 under setting [1] amounted to 34 nM. On the same count and under the same terms, for `CS(=O)(=O)Oc1cccc(C2(c3cccc(-c4cc(C(F)(F)F)cc(C(F)(F)F)c4)c3)N=C(N)N3CCCN=C32)c1` (stereo not shown) [Example 176, 3-[6-Amino-8-[3′,5′-bis(trifluoromethyl)biphenyl-3-yl]-2,3,4,8-tetrahydroimidazo[1,5-a]pyrimidin-8-yl]phenyl methanesulfonate] the value was 1200 nM; for `NC1=NC(c2cccc(OS(=O)(=O)C(F)(F)F)c2)(c2cccc(-c3cccc(Cl)c3)c2)C2=NCCCN12` (stereo not shown) [Example 177, 3-[6-Amino-8-(3′-chlorobiphenyl-3-yl)-2,3,4,8-tetrahydroimidazo[1,5-a]pyrimidin-8-yl]phenyl trifluoromethanesulfonate], 246 nM; for `COc1cccc(C2(c3cccc(-c4cc(Cl)cc(Cl)c4)c3)N=C(N)N3CCCN=C32)c1` (stereo not shown) [Example 178, 8-(3′,5′-Dichlorobiphenyl-3-yl)-8-(3-methoxyphenyl)-2,3,4,8-tetrahydroimidazo[1,5-a]pyrimidin-6-amine], 92 nM.

As to `CS(=O)(=O)Oc1cccc(C2(c3cccc(-c4cc(Cl)cc(Cl)c4)c3)N=C(N)N3CCCN=C32)c1` (stereo not shown) [Example 181, 3-[6-Amino-8-(3′,5′-dichlorobiphenyl-3-yl)-2,3,4,8-tetrahydroimidazo[1,5-a]pyrimidin-8-yl]phenyl methanesulfonate], it took 106 nM to reach half-maximal inhibition under setting [1] (IC50). On the same count and under the same terms, the same measure for `CS(=O)(=O)Oc1cccc(C2(c3cccc(-c4cccc(Cl)c4)c3)N=C(N)N3CCCN=C32)c1` (stereo not shown) [Example 182, 3-[6-Amino-8-(3′-chlorobiphenyl-3-yl)-2,3,4,8-tetrahydroimidazo[1,5-a]pyrimidin-8-yl]phenyl methanesulfonate]: 285 nM; for `COc1cccc(-c2cccc(C3(c4cccc(OS(C)(=O)=O)c4)N=C(N)N4CCCN=C43)c2)c1` (stereo not shown) [Example 183, 3-[6-Amino-8-(3′-methoxybiphenyl-3-yl)-2,3,4,8-tetrahydroimidazo[1,5-a]pyrimidin-8-yl]phenyl methanesulfonate]: 252 nM. Same read-out and setting: for `CCCS(=O)(=O)Oc1cccc(C2(c3cccc(-c4cc(Cl)cc(Cl)c4)c3)N=C(N)N3CCCN=C32)c1` (stereo not shown) [Example 184, 3-[6-Amino-8-(3′,5′-dichlorobiphenyl-3-yl)-2,3,4,8-tetrahydroimidazo[1,5-a]pyrimidin-8-yl]phenyl propane-1-sulfonate] the value was 69 nM; for `CCCS(=O)(=O)Oc1cccc(C2(c3cccc(-c4cccc(OC)c4)c3)N=C(N)N3CCCN=C32)c1` (stereo not shown) [Example 185, 3-[6-Amino-8-(3′-methoxybiphenyl-3-yl)-2,3,4,8-tetrahydroimidazo[1,5-a]pyrimidin-8-yl]phenyl propane-1-sulfonate], 106 nM.

Take `NC1=NC(c2cccc(OS(=O)(=O)C3CC3)c2)(c2cccc(-c3cc(Cl)cc(Cl)c3)c2)C2=NCCCN12` (stereo not shown) [Example 186, 3-[6-Amino-8-(3′,5′-dichlorobiphenyl-3-yl)-2,3,4,8-tetrahydroimidazo[1,5-a]pyrimidin-8-yl]phenyl cyclopropanesulfonate]: inhibition under setting [1] was half-maximal at 51 nM (IC50).
